In US10772846B2, “Methods and compositions for treating and preventing arthritis” (Montefiore Medical Center, priority 2014, dated 2020):

Legend:
DMM mice (C57BL/6) [1] = experiment: Tactile sensitivity testing (von Frey) in DMM OA mice; format: in vivo; settings: oral administration, 8 weeks, summary over von Frey and open field tests
Description: Mice were acclimated for 30 minutes in individual chambers on top of a wire grid platform prior to von Frey testing. The plantar surface of the hind paw was stimulated with ascending force intensities of von Frey filaments (Stoelting) to determine tactile sensitivity. A positive response was defined as a rapid withdrawal of the hind paw when the stimulus was applied, and the number of positive responses for each stimulus was recorded. Tactile threshold was defined as a withdrawal response in 5 out of 10 trials to a given stimulus intensity (38). This threshold was calculated once per animal.
To determine pain relief, three animal behavior assessments were used: 1) von Frey, which determined sensitivity to mechanical stimuli [OA animals tend to have lower thresholds of pain to mechanical stimuli]; 2) distance traveled—a measure of joint movement [OA animals tend to move a lesser distance compared to non-OA animals]; 3) rearing—a measure of joint function [OA animals tend to rear, or stand up on their hind limbs less than non-OA animals].

DMM mice (C57BL/6) [2] = experiment: Slowing progression of OA in DMM post-traumatic OA mouse model (Safranin O staining, OARSI score); format: in vivo; settings: for cartilage damage (fibrillation, erosion, loss of aggrecans) by Safranin O staining: oral daily for 8 weeks; for mean OARSI score ± standard deviation: oral gavage daily for 8 weeks, Carvacrol 50 mg/kg, Curcumin 50 mg/kg, EGCG 5 mg/kg, OPC 50 mg/kg or combination, score 0 healthy to 6 severe erosion, 8 animals/group
Description: Induction of osteoarthritis in mice. All studies were approved by the Albert Einstein College of Medicine Institutional Animal Care and Use Committee. Destabilization of the medial meniscus (DMM) was established in adult C57BL/6 mice (male, 5-6 months) by surgically transecting the medial meniscotibial ligament (MMTL) in the right hind limb (36). Briefly, the joint capsule immediately medial to the patellar tendon was incised, followed by blunt dissection of the fat pad, to provide visualization of the MMTL of the medial meniscus. The MMTL was transected, leading to DMM. In the sham surgery, the MMTL was visualized but not transected. The joint capsule and skin were closed with suture.
Animals were euthanized, hindlimbs were fixed in formalin, decalcified in formic acid, embedded in paraffin and sectioned for histology and immunohistochemistry. Sections were incubated overnight at 4° C. with antibodies against cleaved aggrecan (NITEGE, Ibex) and cleaved type II collagen (Col2-3/4M, Ibex), MMP-13 (Abcam), and ADAMTS5 (Abcam) followed by incubation with anti-mouse or anti-rabbit secondary antibody (Biocare Medical) and visualization with DAB chromagen (Vector Laboratories). Negative controls were stained with irrelevant isotype-matched antibodies (Biocare Medical). Safranin O-fast green staining was used to visualize proteoglycans in the articular cartilage. Severity of OA was evaluated for each mouse using the Osteoarthritis Research Society International (OARSI) scoring system (34) Immunostaining intensity for type II collagen or aggrecan cleavage epitopes was quantified by determining the “reciprocal intensity” of the stained articular cartilage matrix. Briefly, the light intensity value of random locations within azones from the posterior to anterior direction of the femoral and tibial condyles was measured using the color picker in Adobe Photoshop (37). Percentages of positive MMP-13 and ADAMTS5 chondrocytes were determined by counting the number of immunostained cells and dividing by the total number of chondrocytes visualized by a hematoxylin counterstain (Vector Laboratories).
To determine the efficacy of the C′-CEO formulation in slowing progression of OA in vivo, a well-established post-traumatic mouse model of OA was used. These OA mice were orally administered C′-CEO, individual compounds, or placebo daily. Severity of OA was evaluated 8 weeks after induction of OA, using a well-established and FDA recommended cartilage integrity stain, Safranin O, and a semi-quantitative Osteoarthritis Research Society International (OARSI) scoring system. Furthermore, the efficacy of the C′-CEO formulation was validated by examining the level of breakdown of two major cartilage matrix proteins, type II collagen and aggrecan, as cartilage degradation is a hallmark of OA. It was further examined how the C′-CEO formulation may have such effect by targeting CITED2 by examining CITED2 expression in the articular cartilage of these OA mice.
All studies were approved by the Albert Einstein College of Medicine Institutional Animal Care and Use Committee. Destabilization of the medial meniscus (DMM) was established in adult C57BL/6 mice (male, 5-6 months) by surgically transecting the medial meniscotibial ligament (MMTL) in the right hind limb Immediately after surgery, mice were administered either carvacrol (C′), curcumin (C), EGCG (E), OPC(O), C′-CEO, or vehicle control for 8 weeks. At 8 weeks following surgery, animals were euthanized, the hindlimbs were fixed in formalin, decalcified in formic acid, embedded in paraffin and sectioned for histology. Safranin O, a well-stablished cartilage stain, was used to visualize integrity of the articular cartilage and aggrecans in the articular cartilage. Severity of OA was evaluated using the OARSI scoring system.

COc1cc(/C=C/C(=O)CC(=O)/C=C/c2ccc(O)c(OC)c2)ccc1O [Curcumin]
pain relief of OA-associated pain (overall: mechanical sensitivity, joint movement and function) (DMM mice (C57BL/6) [1]): did not result in a statistical improvement in pain relief | cartilage damage (fibrillation, erosion, loss of aggrecans) by Safranin O staining (DMM mice (C57BL/6) [2]): some reduction in cartilage degradation | mean OARSI score ± standard deviation (DMM mice (C57BL/6) [2]): 2.4 ± 0.42

Epigallocatechin-3-gallate [EGCG]
pain relief of OA-associated pain (overall: mechanical sensitivity, joint movement and function) (DMM mice (C57BL/6) [1]): did not result in a statistical improvement in pain relief | cartilage damage (fibrillation, erosion, loss of aggrecans) by Safranin O staining (DMM mice (C57BL/6) [2]): some reduction in cartilage degradation | mean OARSI score ± standard deviation (DMM mice (C57BL/6) [2]): 2.1 ± 0.29

Cc1ccc(C(C)C)cc1O [Carvacrol]
pain relief of OA-associated pain (overall: mechanical sensitivity, joint movement and function) (DMM mice (C57BL/6) [1]): did not result in a statistical improvement in pain relief | cartilage damage (fibrillation, erosion, loss of aggrecans) by Safranin O staining (DMM mice (C57BL/6) [2]): some reduction in cartilage degradation | mean OARSI score ± standard deviation (DMM mice (C57BL/6) [2]): 2.9 ± 0.45
